Data as given in US20250340574A1, “MODULATORS OF CYSTIC FIBROSIS TRANSMEMBRANE CONDUCTANCE REGULATOR” (Vertex Pharmaceuticals Incorporated, priority 2022, published 2025).

Target: T1, CFTR (F508del/MF-HBE cells) (Homo sapiens, UniProt P13569, DEL508-508)
T1 construct: human bronchial epithelial (HBE) cells derived from CF subjects heterozygous for F508del and a minimal function CFTR mutation (F508del/MF-HBE); endogenous in cells; host or cells: Primary human bronchial epithelial cells from CF subjects (F508del/MF genotype), differentiated at an air-liquid interface
Test: Ussing chamber assay of CFTR-mediated short-circuit currents, Assay D (single concentration of 1 μM)
Format: cell-based
Details: with 44 nM potentiator and 18 μM Tezacaftor, 18-24 hours, 20% human serum
Description: Ussing chamber experiments were performed using human bronchial epithelial (HBE) cells derived from CF subjects heterozygous for F508del and a minimal function CFTR mutation (F508del/MF-HBE) and cultured as previously described (Neuberger T, Burton B, Clark H, Van Goor F Methods Mol Biol 2011:741:39-54). After four days the apical media was removed, and the cells were grown at an air liquid interface for >14 days prior to use.
To isolate the CFTR-mediated short-circuit (ISC) current, F508del/MF-HBE grown on Costar® Snapwell™ cell culture inserts were mounted in an Ussing chamber and the transepithelial ISC was measured under voltage-clamp recording conditions (Vhold=0 mV) at 37° C. The basolateral solution contained (in mM) 145 NaCl, 0.83 K2HPO4, 3.3 KH2PO4, 1.2 MgCl2, 1.2 CaCl2, 10 Glucose, 10 HEPES (pH adjusted to 7.4 with NaOH) and the apical solution contained (in mM) 145 NaGluconate, 1.2 MgCl2, 1.2 CaCl2, 10 glucose, 10 HEPES (pH adjusted to 7.4 with NaOH) and 30 μM amiloride to block the epithelial sodium channel. Forskolin (20 μM) was added to the apical surface to activate CFTR, followed by apical addition of a CFTR inhibitor cocktail consisting of BPO, GlyH-101, and CFTR inhibitor 172 (each at 20 μM final assay concentration) to specifically isolate CFTR currents. The CFTR-mediated ISC (μA/cm^2) for each condition was determined from the peak forskolin response to the steady-state current following inhibition.
The activity of the CFTR corrector compounds on the CFTR-mediated ISC was determined in Ussing chamber studies as described above. The F508del/MF-HBE cell cultures were either incubated with the corrector compounds at a range of concentrations in combination with 33 nM (6R,12R)-17-amino-12-methyl-6,15-bis(trifluoromethyl)-13,19-dioxa-3,4,18-triazatricyclo[12.3.1.12,5]nonadeca-1(18),2,4,14,16-pentaen-6-ol and 18 μM Tezacaftor or were incubated with the corrector compounds at a single fixed concentration of 1 μM in combination with 44 nM (6R,12R)-17-amino-12-methyl-6,15-bis(trifluoromethyl)-13,19-dioxa-3,4,18-triazatricyclo[12.3.1.12,5]nonadeca-1(18),2,4,14,16-pentaen-6-ol and 18 μM Tezacaftor for 18-24 hours at 37° C. and in the presence of 20% human serum. The concentration of corrector compounds with 44 nM or 33 nM (6R,12R)-17-amino-12-methyl-6,15-bis(trifluoromethyl)-13,19-dioxa-3,4,18-triazatricyclo[12.3.1.12,5]nonadeca-1(18),2,4,14,16-pentaen-6-ol and 18 μM Tezacaftor during the 18-24 hours incubations was kept constant throughout the Ussing chamber measurement of the CFTR-mediated ISC to ensure compounds were present throughout the entire experiment. The efficacy and potency of the putative F508del correctors was compared to that of the known Vertex corrector, (14S)-8-[3-(2-{Dispiro[2.0.2.1]heptan-7-yl}ethoxy)-1H-pyrazol-1-yl]-12,12-dimethyl-2λ^6-thia-3,9,11,18,23-pentaazatetracyclo[17.3.1.111,14.05,10]tetracosa-1(22),5,7,9,19(23),20-hexaene-2,2,4-trione, in combination with 18 μM Tezacaftor and 1 μM Ivacaftor.
• Assay A: 0.1 μM to 25 μM, 6 concentrations • Assay B: 0.00001 μM to 25 μM, 12 concentrations • Assay C: 0.026 μM to 25 μM, 6 concentrations • Assay D: Activity at single concentration of 1 μM

T1 sequence (P13569 with tags, fused parts or gaps DEL508-508): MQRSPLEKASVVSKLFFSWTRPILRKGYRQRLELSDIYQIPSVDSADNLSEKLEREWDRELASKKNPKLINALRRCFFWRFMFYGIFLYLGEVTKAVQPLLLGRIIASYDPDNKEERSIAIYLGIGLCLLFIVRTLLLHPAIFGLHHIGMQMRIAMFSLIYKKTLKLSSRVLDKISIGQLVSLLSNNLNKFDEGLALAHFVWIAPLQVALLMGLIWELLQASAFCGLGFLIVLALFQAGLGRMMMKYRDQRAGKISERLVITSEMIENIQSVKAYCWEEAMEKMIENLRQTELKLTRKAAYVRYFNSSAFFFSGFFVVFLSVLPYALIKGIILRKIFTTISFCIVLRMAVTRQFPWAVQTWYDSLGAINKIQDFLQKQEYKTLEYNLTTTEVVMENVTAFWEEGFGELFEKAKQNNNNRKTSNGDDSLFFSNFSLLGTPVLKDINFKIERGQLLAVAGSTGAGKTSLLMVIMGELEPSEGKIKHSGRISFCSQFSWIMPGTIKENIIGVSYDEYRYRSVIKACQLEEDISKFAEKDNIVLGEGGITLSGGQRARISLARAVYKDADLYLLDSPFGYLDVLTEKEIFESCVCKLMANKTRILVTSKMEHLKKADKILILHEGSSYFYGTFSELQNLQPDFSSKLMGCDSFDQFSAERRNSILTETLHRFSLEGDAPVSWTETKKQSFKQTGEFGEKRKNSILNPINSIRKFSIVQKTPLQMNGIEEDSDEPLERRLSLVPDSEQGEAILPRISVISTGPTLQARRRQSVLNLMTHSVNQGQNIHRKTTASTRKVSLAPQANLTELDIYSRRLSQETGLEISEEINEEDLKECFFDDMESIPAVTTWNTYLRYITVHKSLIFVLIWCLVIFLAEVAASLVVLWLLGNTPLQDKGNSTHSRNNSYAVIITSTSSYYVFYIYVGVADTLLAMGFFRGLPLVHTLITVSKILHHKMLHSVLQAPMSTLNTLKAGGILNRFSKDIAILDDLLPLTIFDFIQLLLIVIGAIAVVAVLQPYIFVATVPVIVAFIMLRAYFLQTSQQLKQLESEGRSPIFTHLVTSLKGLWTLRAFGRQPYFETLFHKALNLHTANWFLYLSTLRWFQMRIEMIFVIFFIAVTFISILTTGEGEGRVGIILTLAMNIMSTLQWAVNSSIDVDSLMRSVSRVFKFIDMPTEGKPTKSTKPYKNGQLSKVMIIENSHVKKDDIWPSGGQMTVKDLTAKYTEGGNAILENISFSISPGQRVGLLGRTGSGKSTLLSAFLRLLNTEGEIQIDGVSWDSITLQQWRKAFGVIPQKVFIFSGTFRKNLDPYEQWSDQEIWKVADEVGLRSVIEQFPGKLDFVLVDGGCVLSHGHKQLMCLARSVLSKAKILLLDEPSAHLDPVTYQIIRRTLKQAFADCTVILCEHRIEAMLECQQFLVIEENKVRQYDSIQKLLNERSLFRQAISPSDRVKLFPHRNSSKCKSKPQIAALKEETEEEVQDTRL

SMILES	D activity at 1 μM (%)
Cc1cccc(C)c1-c1cc2nc(n1)NS(=N)(=O)c1cccc(c1)C(=O)N(Cc1cnc3oc(C4CC4)cc3n1)[C@H](CC(C)(C)C)CO2 (single isomer, unassigned) [Compound I-147]	+++ (+++ is >60%)
Cc1cccc(C)c1-c1cc2nc(n1)NS(=O)(=O)c1cccc(c1)C(=O)N(Cc1cnc3cc(C4CC4)n(C)c3n1)[C@H](CC(C)(C)C)CO2 [Compound I-150]	+++ (+++ is >60%)
Cc1cccc(C)c1-c1nc2nc(c1C)OC[C@@H](C[C@H]1CCCCO1)N(Cc1cnc3oc(C4CC4)cc3n1)C(=O)c1cccc(c1)S(=O)(=O)N2 [Compound I-192]	+++ (+++ is >60%)
Cc1cccc(C)c1-c1cc2nc(n1)NS(=O)(=O)c1cccc(c1)C(=O)N(Cc1cnc3c(n1)C(=O)N(C(C)C)C3)[C@@H](CCC1(C)CC1)CO2 (stereo in doubt) [III-22]	+++ (+++ is >60%)
Cc1cccc(C)c1-c1cc2nc(n1)NS(=O)(=O)c1cccc(c1)C(=O)N(Cc1nc3cc(C(C)(C)C)oc3cc1F)[C@H](CC1(C)CC1)CO2 [Compound I-243]	+++ (+++ is >60%)
Cc1cccc(C)c1-c1cc2nc(n1)NS(=O)(=O)c1cccc(c1)C(=O)N(Cc1ccc3oc(C4(C)CC4)cc3n1)[C@H](COC(C)C)CO2 [Compound I-241]	+++ (+++ is >60%)
Cc1cccc(C(C)C)c1-c1nc2nc(c1C)OC[C@@H](CC(C)(C)C)N(Cc1cnc3oc(C(C)C)cc3n1)C(=O)c1cccc(c1)S(=O)(=O)N2 (atropisomer, axis not shown) [Compound I-136]	+++ (+++ is >60%)
Cc1cccc(C)c1-c1cc2nc(n1)NS(=O)(=O)c1cccc(c1)C(=O)N(Cc1cnc3oc(C(C)C)cc3n1)[C@H](CC1(F)CCC1)CO2 [Compound I-124]	+++ (+++ is >60%)
Cc1cccc(C)c1-c1cc2nc(n1)NS(=O)(=O)c1cccc(c1)C(=O)N(Cc1cnc3oc(C(C)(C)C)cc3n1)[C@H](CC1CC1)CO2 [Compound I-219]	+++ (+++ is >60%)

More lines, now with the values ahead:

D activity at 1 μM (%)	SMILES
+++ (+++ is >60%)	Cc1cccc(C)c1-c1cc2nc(n1)NS(=O)(=O)c1cccc(c1)C(=O)N(Cc1cnc3oc(C4CC4)cc3n1)[C@H](CC1(C)CCC1)CO2 [Compound I-116]
+++ (+++ is >60%)	Cc1cccc(C)c1-c1nc2nc(c1C)OC[C@@H](CC1(C)CC1)N(Cc1cnc3oc(C(C)(C)C)cc3n1)C(=O)c1cccc(c1)S(=O)(=O)N2 [Compound I-221]
+++ (+++ is >60%)	Cc1cccc(C)c1-c1cc2nc(n1)NS(=O)(=O)c1cccc(c1)C(=O)N(Cc1ncc3oc(C4CC4)cc3n1)[C@H](COC(C)C)CO2 [Compound I-200]
++ (++ is 30-60%)	CCC(C)(C)C[C@H]1COc2cc(-c3c(C)cccc3C)nc(n2)NS(=O)(=O)c2cccc(c2)C(=O)N1Cc1cnc2oc(C(C)C)cc2n1 (stereo in doubt) [Compound I-39]
+++ (+++ is >60%)	Cc1cccc(C)c1-c1nc2nc(c1C)OC[C@@H](COC(C)C)N(Cc1cnc3cc(C(C)C)n(C)c3n1)C(=O)c1cccc(c1)S(=O)(=O)N2 [Compound I-189]
+++ (+++ is >60%)	Cc1cccc(C)c1-c1cc2nc(n1)NS(=O)(=O)c1cccc(c1)C(=O)N(Cc1cnc3oc(C(C)C)cc3n1)[C@H](CC(C)(C)C(F)(F)F)CO2 [Compound I-60]
+++ (+++ is >60%)	Cc1cccc(C)c1-c1cc2nc(n1)NS(=O)(=O)c1cccc(c1)C(=O)N(Cc1cnc3cn(C(C)C)nc3n1)[C@H](CC(C)(C)C)CO2 [Compound I-111]
+++ (+++ is >60%)	Cc1cccc(C)c1-c1nc2nc(c1C)OC[C@@H](CCC(C)(C)C)N(Cc1cnc3oc(C4CC4)cc3n1)C(=O)c1cccc(c1)S(=O)(=O)N2 [Compound I-184]
+++ (+++ is >60%)	Cc1cccc(C)c1-c1cc2nc(n1)NS(=O)(=O)c1cccc(c1)C(=O)N(Cc1cnc3oc(C(C)C)c(C)c3n1)[C@H](CC(C)(C)F)CO2 [Compound I-48]
+++ (+++ is >60%)	Cc1cccc(CC(C)C)c1-c1nc2nc(c1C)OC[C@@H](CC(C)(C)C)N(Cc1cnc3oc(C(C)(C)C)cc3n1)C(=O)c1cccc(c1)S(=O)(=O)N2 (atropisomer, axis not shown) [Compound I-238]
+++ (+++ is >60%)	Cc1cccc(C)c1-c1cc2nc(n1)NS(=O)(=O)c1cccc(c1)C(=O)N(Cc1cnc3oc(C(C)C)c(C#N)c3n1)[C@H](CC(C)(C)C)CO2 [Compound I-74]
+++ (+++ is >60%)	Cc1cccc(C)c1-c1cc2nc(n1)NS(=O)(=O)c1cccc(c1)C(=O)N(Cc1cnc3oc(C(C)C)c(N)c3n1)[C@H](CC1(C)CC1)CO2 [Compound I-237, (11R)-12-[(7-Amino-6-isopropyl-furo[2,3-b]pyrazin-2-yl)methyl]-6-(2,6-dimethylphenyl)-11-[(1-methylcyclopropyl)methyl]-2,2-dioxo-9-oxa-2λ^6-thia-3,5,12,19-tetrazatricyclo[12.3.1.14,8]nonadeca-1(18),4(19),5,7,14,16-hexaen-13-one]
+++ (+++ is >60%)	Cc1cccc(C)c1-c1cc2nc(n1)NS(=O)(=O)c1cccc(c1)C(=O)N(Cc1nc3cc(C(C)(C)C)oc3cc1F)[C@H](CC13CC(C1)C3)CO2 [Compound I-244]
+++ (+++ is >60%)	Cc1cccc(C)c1-c1cc2nc(n1)NS(=O)(=O)c1cccc(c1)C(=O)N(Cc1cnc3cc(C(C)C)n(C)c3n1)[C@H](CC1(F)CCC1)CO2 [Compound I-125]

Same assay, conditions: with 44 nM potentiator and 18 μM Tezacaftor, 20% human serum

SMILES	D act. at 1 μM (%)
Cc1cccc(C)c1-c1cc2nc(n1)NS(=O)(=O)c1cccc(c1)C(=O)N(Cc1cnc3cc(C4(C)CC4)n(C)c3n1)[C@@H](C(C1CCC1)C1CCC1)CO2 (single isomer, unassigned) [IV-21, 11-[di(cyclobutyl)methyl]-6-(2,6-dimethylphenyl)-12-[[5-methyl-6-(1-methylcyclopropyl)pyrrolo[2,3-b]pyrazin-3-yl]methyl]-2,2-dioxo-9-oxa-2λ^6-thia-3,5,12,19-tetrazatricyclo[12.3.1.14,8]nonadeca-1(18),4(19),5,7,14,16-hexaen-13-one]	++ (++ is 30-60%)
Cc1cccc(C)c1-c1cc2nc(n1)NS(=O)(=O)c1cccc(c1)C(=O)N(Cc1cnc3oc(C(C)(C)C)cc3n1)[C@H](CC1CCCCC1)CO2 [IV-9]	+++ (+++ is >60%)
Cc1cccc(C)c1-c1cc2nc(n1)NS(=O)(=O)c1cccc(c1)C(=O)N(Cc1cnc3oc([C@](C)(O)CO)cc3n1)[C@H](CC1(C)CC1)CO2 (single isomer, unassigned) [IV-15]	+++ (+++ is >60%)
Cc1cccc(C)c1-c1cc2nc(n1)NS(=O)(=O)c1cccc(c1)C(=O)N(Cc1cnc3oc(C(C)(C)C)cc3n1)[C@@H](CCC1(C)CC1)CO2 [IV-10]	+++ (+++ is >60%)
